Experiment in all cases: General post-emergent herbicidal activity, foliar application
What all share (type): in vivo

Assay [1] concerns Amaranthus retroflexus L. (pigweed, redroot). The settings on record: for pest or weed control at 70 g/ha: 70 g ai/ha; for pest or weed control at 140 g/ha: 140 g ai/ha; for pest or weed control at 280 g/ha: 280 g ai/ha; for GR80 Value AMARE: calculated by probit analysis, dose for 80% visual injury, may be extrapolated. The method in brief:
(§1)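 Compounds in acetone/DMSO 97:3 were diluted into aqueous spray mix with isopropanol, crop oil concentrate and Triton X-155, then serially diluted to 1/2×–1/16× of the top rate and sprayed on foliage. Plants were kept in greenhouse with sub-irrigation. Injury was scored visually (0–100%) at 14 days; GR20/GR50/GR80 came from probit analysis.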

Assay [2] concerns Chenopodium album L. (lambsquarters, common). The settings on record: for pest or weed control at 70 g/ha: 70 g ai/ha; for pest or weed control at 140 g/ha: 140 g ai/ha; for pest or weed control at 280 g/ha: 280 g ai/ha; for GR80 Value CHEAL: calculated by probit analysis, dose for 80% visual injury, may be extrapolated. The method in brief: as §1
For assay [3], the system named is Echinochloa crus-galli (L.) Beauv. (barnyardgrass). The settings on record: for pest or weed control at 70 g/ha: 70 g ai/ha; for pest or weed control at 140 g/ha: 140 g ai/ha; for pest or weed control at 280 g/ha: 280 g ai/ha; for GR80 Value ECHCG: calculated by probit analysis, dose for 80% visual injury, may be extrapolated. The method in brief: as §1
Assay [4] concerns Euphorbia heterophylla L. (poinsettia, wild). The following applies: for pest or weed control at 70 g/ha: 70 g ai/ha; for pest or weed control at 140 g/ha: 140 g ai/ha; for pest or weed control at 280 g/ha: 280 g ai/ha; for GR80 Value EPHHL: calculated by probit analysis, dose for 80% visual injury, may be extrapolated. The method, boiled down: as §1
Assay [5] relates to Helianthus annuus L. (sunflower, common). The following applies: for pest or weed control at 70 g/ha: 70 g ai/ha; for pest or weed control at 140 g/ha: 140 g ai/ha; for pest or weed control at 280 g/ha: 280 g ai/ha; for GR80 Value HELAN: calculated by probit analysis, dose for 80% visual injury, may be extrapolated. The method in brief: as §1
Assay [6] deals with Viola tricolor L. (pansy). The following applies: for pest or weed control at 70 g/ha: 70 g ai/ha; for pest or weed control at 140 g/ha: 140 g ai/ha; for GR80 Value VIOTR: calculated by probit analysis, dose for 80% visual injury, may be extrapolated. The method, boiled down: as §1
Assay [7] concerns Oryza sativa L. (rice). The settings on record: Oryza sativa, 336 h, scored after 14 days, read-out: % Visual Growth Reduction ORYSA; for plant injury at 70 g/ha: 70 g ai/ha; for plant injury at 140 g/ha: 140 g ai/ha; for plant injury at 280 g/ha: 280 g ai/ha. The method in brief:
(§2)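 Injury rated visually 14 days after treatment on a 0 (none) to 100% (complete kill) scale against untreated plants; greenhouse-grown, sub-irrigated to avoid wash-off. Foliar spray in aqueous acetone/DMSO with isopropanol, crop oil concentrate and Triton X-155, at a highest rate and 2-fold serial dilutions down to 1/16×.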

Assay [8] deals with Zea mays L. (corn). The settings on record: 336 h, scored after 14 days, read-out: % Visual Growth Reduction ZEAMX; for plant injury at 70 g/ha: 70 g ai/ha; for plant injury at 140 g/ha: 140 g ai/ha; for plant injury at 280 g/ha: 280 g ai/ha. The method in brief:
as §2

[9] abbreviates: Amaranthus retroflexus, 336 h, foliar post-emergent, scored after 14 days, read-out: % Visual Growth Reduction AMARE.
Setting [10] is: Chenopodium album, 336 h, foliar post-emergent, scored after 14 days, read-out: % Visual Growth Reduction CHEAL.
Setting [11] is: Echinochloa crus-galli, 336 h, foliar post-emergent, scored after 14 days, read-out: % Visual Growth Reduction ECHCG.
The mark [12] stands for this setting: Euphorbia heterophylla, 336 h, foliar post-emergent, scored after 14 days, read-out: % Visual Growth Reduction EPHHL.
Setting [13] is: Helianthus annuus, 336 h, foliar post-emergent, scored after 14 days, read-out: % Visual Growth Reduction HELAN.
Setting [14] is: Viola tricolor, 336 h, foliar post-emergent, scored after 14 days, read-out: % Visual Growth Reduction VIOTR.

For the compound `Nc1cc(C(F)F)nc(C(=O)O)c1Cl` [Compound F27], the pest or weed control at 35 g/ha in assay [1] (Amaranthus retroflexus, 336 h, 35 g ai/ha, foliar post-emergent, scored after 14 days, read-out: % Visual Growth Reduction AMARE) turned out to be 90%; in assay [2] (Chenopodium album, 336 h, 35 g ai/ha, foliar post-emergent, scored after 14 days, read-out: % Visual Growth Reduction CHEAL), 100%; in assay [3] (Echinochloa crus-galli, 336 h, 35 g ai/ha, foliar post-emergent, scored after 14 days, read-out: % Visual Growth Reduction ECHCG), 0%; in assay [4] (Euphorbia heterophylla, 336 h, 35 g ai/ha, foliar post-emergent, scored after 14 days, read-out: % Visual Growth Reduction EPHHL), 90%; in assay [5] (Helianthus annuus, 336 h, 35 g ai/ha, foliar post-emergent, scored after 14 days, read-out: % Visual Growth Reduction HELAN), 90%; in assay [6] (Viola tricolor, 336 h, 35 g ai/ha, foliar post-emergent, scored after 14 days, read-out: % Visual Growth Reduction VIOTR) it was 80%. Moreover, the pest or weed control at 70 g/ha in assay [1] (setting [9]) came out at 90%; in assay [2] (setting [10]), 100%; in assay [3] (setting [11]), 65%; in assay [4] (setting [12]), 100%; in assay [5] (setting [13]), 100%; in assay [6] (setting [14]) it was 100%. In addition, the pest or weed control at 140 g/ha in assay [1] (setting [9]) came to 100%; in assay [2] (setting [10]) it was 100%; in assay [3] (setting [11]), 80%; in assay [4] (setting [12]) it was 100%; in assay [5] (setting [13]) it was 100%; in assay [6] (setting [14]), 100%. In addition, the pest or weed control at 280 g/ha is 100% in assay [1] (setting [9]); 100% in assay [2] (setting [10]); 80% in assay [3] (setting [11]); 100% in assay [4] (setting [12]); 100% in assay [5] (setting [13]). In addition, the “GR80 Value AMARE” value in assay [1] is recorded as 17.5 g ai/ha. The “GR80 Value CHEAL” value in assay [2] is listed as less than 17.5 g ai/ha. Moreover, in assay [3], the “GR80 Value ECHCG” value is given as 187 g ai/ha. In assay [4], the “GR80 Value EPHHL” value is less than 17.5 g ai/ha. For the same compound, the “GR80 Value HELAN” value in assay [5] is less than 17.5 g ai/ha. The “GR80 Value VIOTR” value in assay [6] is 59.2 g ai/ha. Besides, the plant injury at 70 g/ha in assay [7] was found to be 13%; in assay [8] it was 50%. The plant injury at 140 g/ha was 15% in assay [7] and 60% in assay [8]. The figures for the plant injury at 280 g/ha in assay [7] and in assay [8] were 20% and 60%, respectively. Also, in assay [8] (35 g ai/ha), the plant injury at 35 g/ha was 20%.

In the case of `COC(=O)c1nc(C(C)CF)c(F)c(N)c1Cl` (stereo not drawn) [Compound F37, methyl 4-amino-3-chloro-5-fluoro-6-(1-fluoropropan-2-yl)picolinate], the pest or weed control at 132 g/ha in assay [1] (Amaranthus retroflexus, 336 h, 132 g ai/ha, foliar post-emergent, scored after 14 days, read-out: % Visual Growth Reduction AMARE) was found to be 50%; in assay [2] (Chenopodium album, 336 h, 132 g ai/ha, foliar post-emergent, scored after 14 days, read-out: % Visual Growth Reduction CHEAL), 0%; in assay [3] (Echinochloa crus-galli, 336 h, 132 g ai/ha, foliar post-emergent, scored after 14 days, read-out: % Visual Growth Reduction ECHCG) it was 0%; in assay [4] (Euphorbia heterophylla, 336 h, 132 g ai/ha, foliar post-emergent, scored after 14 days, read-out: % Visual Growth Reduction EPHHL), 100%; in assay [5] (Helianthus annuus, 336 h, 132 g ai/ha, foliar post-emergent, scored after 14 days, read-out: % Visual Growth Reduction HELAN) it was 80%; in assay [6] (Viola tricolor, 336 h, 132 g ai/ha, foliar post-emergent, scored after 14 days, read-out: % Visual Growth Reduction VIOTR) it was 0%. Also, the plant injury at 132 g/ha in assay [7] (132 g ai/ha) and in assay [8] (132 g ai/ha) was 0% throughout.

With `Nc1c(F)c(C(F)F)nc(C(=O)O)c1Cl` [Compound F32, 4-Amino-3-chloro-6-(difluoromethyl)-5-fluoropicolinic acid], the pest or weed control at 140 g/ha is 55% in assay [1] (setting [9]); 90% in assay [2] (setting [10]); 55% in assay [3] (setting [11]); 30% in assay [4] (setting [12]); 100% in assay [5] (setting [13]); 5% in assay [6] (setting [14]). Further, the pest or weed control at 280 g/ha in assay [1] (setting [9]) came to 85%; in assay [2] (setting [10]) it was 100%; in assay [3] (setting [11]), 60%; in assay [4] (setting [12]), 50%; in assay [5] (setting [13]), 100%; in assay [6] (Viola tricolor, 336 h, 280 g ai/ha, foliar post-emergent, scored after 14 days, read-out: % Visual Growth Reduction VIOTR), 10%. For the same compound, the “GR80 Value AMARE” value in assay [1] is listed as 251 g ai/ha. Moreover, the “GR80 Value CHEAL” value in assay [2] is 26.9 g ai/ha. The “GR80 Value ECHCG” value in assay [3] is given as 433 g ai/ha. Further, in assay [4], the “GR80 Value EPHHL” value is listed as greater than 280 g ai/ha. For the same compound, in assay [5], the “GR80 Value HELAN” value was 40.8 g ai/ha. For the same compound, in assay [6], the “GR80 Value VIOTR” value is recorded as greater than 280 g ai/ha. Also, the plant injury at 140 g/ha in assay [7] and in assay [8] was 0% in each case. For the same compound, the plant injury at 280 g/ha in assay [7] was determined as 5%; in assay [8], 10%.

In the case of `COC(=O)c1nc(C(C)(F)CF)cc(N)c1Cl` (stereo not drawn) [Compound F11, Methyl 4-amino-3-chloro-6-(1,2-difluoropropan-2-yl)picolinate], the pest or weed control at 140 g/ha in assay [1] (setting [9]) came out at 30%; in assay [2] (setting [10]), 0%; in assay [3] (setting [11]), 0%; in assay [4] (setting [12]), 10%; in assay [5] (setting [13]), 70%; in assay [6] (setting [14]), 0%. In addition, the plant injury at 140 g/ha in assay [7] and in assay [8] was 0% throughout.

Regarding `COC(=O)c1nc(C(C)(C)F)cc(N)c1Cl` [Compound F9, methyl 4-amino-3-chloro-6-(2-fluoropropan-2-yl)picolinate], the pest or weed control at 70 g/ha stood at 100% in assay [1] (setting [9]); 70% in assay [2] (setting [10]); 0% in assay [3] (setting [11]); 85% in assay [4] (setting [12]); 50% in assay [5] (setting [13]); 40% in assay [6] (setting [14]). The pest or weed control at 140 g/ha in assay [1] (setting [9]) was determined as 100%; in assay [2] (setting [10]), 85%; in assay [3] (setting [11]), 0%; in assay [4] (setting [12]) it was 100%; in assay [5] (setting [13]), 50%; in assay [6] (setting [14]), 30%. Besides, the “GR80 Value AMARE” value in assay [1] is 13.7 g ai/ha. Besides, in assay [2], the “GR80 Value CHEAL” value was 110 g ai/ha. The “GR80 Value ECHCG” value in assay [3] is recorded as greater than 140 g ai/ha. For the same compound, the “GR80 Value EPHHL” value in assay [4] is recorded as 49.4 g ai/ha. In assay [5], the “GR80 Value HELAN” value is on record as 237 g ai/ha. In addition, the “GR80 Value VIOTR” value in assay [6] is greater than 140 g ai/ha. Further, the plant injury at 70 g/ha in assay [7] and in assay [8] was 0% throughout. Also, the plant injury at 140 g/ha in assay [7] came to 0%; in assay [8] it was 15%.

The record behind these values is patent US9603364B2 (Dow AgroSciences LLC, priority 2013, dated 2017).
